Values quoted from earlier work, collected in paper PMC9063426, “MAP kinases differentially bind and phosphorylate NOS3 via two unique NOS3 sites” (FEBS Open Bio, 2022).
Where no end group is shown, it is not given here.

Assays:
NOS3 = details: endothelial cells, inhibition and dominant negative experiments, via S114 phosphorylation; ref [10]; cited from earlier work
ERK-NOS3 complexes = test system: ERK-NOS3 complexes; design: method as in PMID 10899167; details: BAECs treated with bradykinin; ref [9]; cited from earlier work

## JNK2: JNK2, shown to inhibit cellular NO production
NOS3
  cellular NO production: inhibited cellular NO production

## RPPGFSPFR [bradykinin]
ERK-NOS3 complexes
  effect on ERK-NOS3 complexes: caused ERK to disassociate from NOS3 complexes and over time the complex reassociated
